Test results published in US20060069132A1, “Azolecarboxamide herbicides” (priority 2004, published 2006).

Tests used:
[1] = tested on: barnyardgrass; assay: Test B pre-/postemergence herbicide test; assay type: in vivo, Echinochloa crus-galli; conditions: for Plant response rating, Barnyardgrass: preemergence; for Barnyardgrass plant response rating: postemergence, visual rating, scale 0 (no effect) to 100 (complete control)
In short: (§1)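 Formulation: non-phytotoxic solvent mix with surfactant. Timing: preemergence on seed and postemergence on 2–18 cm plants, applied concurrently. Readout after 13–15 d greenhouse: visual 0–100 control rating against controls.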

[2] = tested on: Surinam grass; assay: Test B pre-/postemergence herbicide test; assay type: in vivo, Urochloa decumbens; conditions: for Plant response rating, Surinam Grass: preemergence; for Surinam Grass plant response rating: postemergence, visual rating, scale 0 (no effect) to 100 (complete control)
In short: (§2)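 Flooded paddy rice and barnyardgrass were treated at the 2-leaf stage; upland plantings received compound either on sown seed or on 1- to 4-leaf seedlings. All were kept 13–15 days in a greenhouse and scored visually, 0–100, relative to untreated plants.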

[3] = tested on: cocklebur; assay: Test B pre-/postemergence herbicide test; assay type: in vivo, Xanthium strumarium; conditions: for Plant response rating, Cocklebur: preemergence; for Cocklebur plant response rating: postemergence, visual rating, scale 0 (no effect) to 100 (complete control)
In short: as §1

[4] = tested on: corn; assay: Test B pre-/postemergence herbicide test; assay type: in vivo, Zea mays; conditions: for Plant response rating, Corn: preemergence; for Corn plant response rating: postemergence, visual rating, scale 0 (no effect) to 100 (complete control)
In short: as §2

[5] = tested on: large crabgrass; assay: Test B pre-/postemergence herbicide test; assay type: in vivo, Digitaria sanguinalis; conditions: for Plant response rating, Crabgrass, Large: preemergence; for Crabgrass, Large plant response rating: postemergence, visual rating, scale 0 (no effect) to 100 (complete control)
In short: as §2

[6] = tested on: giant foxtail; assay: Test B pre-/postemergence herbicide test; assay type: in vivo, Setaria faberi; conditions: for Plant response rating, Foxtail, Giant: preemergence; for Foxtail, Giant plant response rating: postemergence, visual rating, scale 0 (no effect) to 100 (complete control)
In short: as §2

[7] = tested on: lambsquarters; assay: Test B pre-/postemergence herbicide test; assay type: in vivo, Chenopodium album; conditions: for Plant response rating, Lambsquarters: preemergence; for Lambsquarters plant response rating: postemergence, visual rating, scale 0 (no effect) to 100 (complete control)
In short: as §2

[8] = tested on: pigweed; assay: Test B pre-/postemergence herbicide test; assay type: in vivo, Amaranthus retroflexus; conditions: for Plant response rating, Pigweed: preemergence; for Pigweed plant response rating: postemergence, visual rating, scale 0 (no effect) to 100 (complete control)
In short: as §2

[9] = tested on: velvetleaf; assay: Test B pre-/postemergence herbicide test; assay type: in vivo, Abutilon theophrasti; conditions: for Plant response rating, Velvetleaf: preemergence; for Velvetleaf plant response rating: postemergence, visual rating, scale 0 (no effect) to 100 (complete control)
In short: as §2

[10] = tested on: blackgrass; assay: Test B postemergence herbicide test; assay type: in vivo, Alopecurus myosuroides; conditions: postemergence, visual rating, scale 0 (no effect) to 100 (complete control)
In short: (§3)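 Scale 0–100: zero equals no visible effect, 100 complete control, judged by eye relative to controls. Timing: 13 to 15 days in greenhouse post-treatment. Growth stage at spraying: two leaves (paddy) or one to four leaves, 2–18 cm (postemergence).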

[11] = tested on: wheat; assay: Test B postemergence herbicide test; assay type: in vivo, Triticum aestivum; set-up: key to Wheat plant response rating: 0 = no effect, 100 = complete control; conditions: postemergence, 500 g ai/ha; visual rating, scale 0 (no effect) to 100 (complete control)
In short: (§4)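 Postemergence plants were sprayed with formulated test chemicals at 2 to 18 cm height (1- to 4-leaf stage); paddy species were grown to the 2-leaf stage. After 13 to 15 days in a greenhouse, injury was rated visually against untreated controls on a 0–100 scale (0 = no effect, 100 = complete control).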

[12] = tested on: wild oat; assay: Test B postemergence herbicide test; assay type: in vivo, Avena fatua; conditions: postemergence, visual rating, scale 0 (no effect) to 100 (complete control)
In short: as §4

[13] = tested on: rice; assay: Test B flooded paddy test; assay type: in vivo, Oryza sativa; conditions: 1000 g ai/ha, visual rating, scale 0 to 100 (0 no effect, 100 complete control), 13 to 15 days
In short: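 After treating 2-leaf paddy plants or 2–18 cm postemergence plants (1 to 4 leaves) with formulated chemical, researchers kept them in a greenhouse for 13–15 days. Effects were judged visually versus controls: 0 indicates none, 100 total control.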

[14] = tested on: small flower umbrella sedge; assay: Test B flooded paddy test; assay type: in vivo, Cyperus difformis; conditions: 1000 g ai/ha, visual rating, scale 0 to 100 (0 no effect, 100 complete control), 13 to 15 days
In short: as §3

[15] = tested on: ducksalad; assay: Test B flooded paddy test; assay type: in vivo, Heteranthera limosa; conditions: 1000 g ai/ha, visual rating, scale 0 to 100 (0 no effect, 100 complete control), 13 to 15 days
In short: as §3

[16] = 500 g ai/ha, visual rating 0-100, 0 no effect, 100 complete control
[17] = 125 g ai/ha, 0 to 100 scale, 0 is no effect, 100 is complete control

CCn1nc(C(C)(C)C)cc1C(=O)Nc1cccc(C(=O)NC2CC2)n1 [Compound 146]
Plant response rating, Barnyardgrass [1, 16]: 90
Barnyardgrass plant response rating ([1]; 125 g ai/ha): 20
Barnyardgrass plant response rating ([1]; 500 g ai/ha): 60
Plant response rating, Barnyardgrass [1, 17]: 40
Plant response rating, Surinam Grass [2, 16]: 30
Surinam Grass plant response rating ([2]; 125 g ai/ha): 10
Surinam Grass plant response rating ([2]; 500 g ai/ha): 30
Plant response rating, Surinam Grass [2, 17]: 10
Plant response rating, Cocklebur [3, 16]: 0
Cocklebur plant response rating ([3]; 125 g ai/ha): 20
Cocklebur plant response rating ([3]; 500 g ai/ha): 80
Plant response rating, Cocklebur [3, 17]: 0
Plant response rating, Corn [4, 16]: 0
Corn plant response rating ([4]; 125 g ai/ha): 10
Corn plant response rating ([4]; 500 g ai/ha): 30
Plant response rating, Corn [4, 17]: 0
Plant response rating, Crabgrass, Large [5, 16]: 100
Crabgrass, Large plant response rating ([5]; 125 g ai/ha): 10
Crabgrass, Large plant response rating ([5]; 500 g ai/ha): 20
Plant response rating, Crabgrass, Large [5, 17]: 10
Plant response rating, Foxtail, Giant [6, 16]: 90
Foxtail, Giant plant response rating ([6]; 125 g ai/ha): 20
Foxtail, Giant plant response rating ([6]; 500 g ai/ha): 20
Plant response rating, Foxtail, Giant [6, 17]: 10
Plant response rating, Lambsquarters [7, 16]: 100
Lambsquarters plant response rating ([7]; 125 g ai/ha): 80
Lambsquarters plant response rating ([7]; 500 g ai/ha): 90
Plant response rating, Lambsquarters [7, 17]: 80
Plant response rating, Pigweed [8, 16]: 100
Pigweed plant response rating ([8]; 125 g ai/ha): 80
Pigweed plant response rating ([8]; 500 g ai/ha): 90
Plant response rating, Pigweed [8, 17]: 100
Plant response rating, Velvetleaf [9, 16]: 90
Velvetleaf plant response rating ([9]; 125 g ai/ha): 50
Velvetleaf plant response rating ([9]; 500 g ai/ha): 60
Plant response rating, Velvetleaf [9, 17]: 20
Blackgrass plant response rating ([10]; 125 g ai/ha): 10
Blackgrass plant response rating ([10]; 500 g ai/ha): 20
Wheat plant response rating [11]: 10
Oat, Wild plant response rating ([12]; 125 g ai/ha): 10
Oat, Wild plant response rating ([12]; 500 g ai/ha): 20
Rice plant response rating [13]: 40
Sedge, Umbrella plant response rating [14]: 90
Ducksalad plant response rating [15]: 80
